Reference: ChEMBL document CHEMBL1152855, “Regioselective synthesis of dispiro[1H-indene-2,3'-pyrrolidine-2',3''-[3H]indole]-1,2''(1''H)-diones of potential anti-tumor properties” (2009)

What was measured:
UACC-257 = test: Growth inhibition of human UACC257 cells at 10 uM after 48 hrs by sulforhodamine B assay; format: functional; settings: UACC-257, 48 h, values are per cent of control
RPMI-8226 = test: Growth inhibition of human RPMI8226 cells at 10 uM after 48 hrs by sulforhodamine B assay; format: functional; settings: RPMI-8226, 48 h, read-out: GI
LOX IMVI = test: Growth inhibition of human LOXIMVI cells at 10 uM after 48 hrs by sulforhodamine B assay; format: functional; settings: values are per cent of control
NCI-H226 = test: Growth inhibition of human NCI-H226 cells at 10 uM after 48 hrs by sulforhodamine B assay; format: functional; settings: NCI-H226, 48 h, values are per cent of control
Malme-3M = test: Growth inhibition of human MALME-3M cells at 10 uM after 48 hrs by sulforhodamine B assay; format: functional; settings: values are per cent of control
Rattus norvegicus [1] = test: Antiinflammatory activity against carrageenan-induced paw edema in Wister albino rat assessed as inhibition of edema at 50 mg/kg, ip administered 1 hr prior to carrageenan challenge measured after 3 hrs relative to control; format: functional; settings: route intraperitoneal
Rattus norvegicus [2] = test: Antiinflammatory activity against carrageenan-induced paw edema in Wister albino rat assessed as inhibition of edema at 50 mg/kg, ip administered 1 hr prior to carrageenan challenge measured after 4 hrs relative to indomethacin; format: functional; settings: route intraperitoneal
Rattus norvegicus [3] = test: Antiinflammatory activity against carrageenan-induced paw edema in Wister albino rat assessed as inhibition of edema at 50 mg/kg, ip administered 1 hr prior to carrageenan challenge measured after 1 hr relative to control; format: functional; settings: route intraperitoneal
HCT-116 = test: Growth inhibition of human HCT116 cells at 10 uM after 48 hrs by sulforhodamine B assay; format: functional; settings: HCT-116, 48 h, values are per cent of control
[4] = Growth inhibition of human Hs 578T cells at 10 uM after 48 hrs by sulforhodamine B assay; format: functional; settings: values are per cent of control
SK-MEL-2 = test: Growth inhibition of human SK-MEL-2 cells at 10 uM after 48 hrs by sulforhodamine B assay; format: functional; settings: SK-MEL-2, 48 h, read-out: GI
BT-549 = test: Growth inhibition of human BT549 cells at 10 uM after 48 hrs by sulforhodamine B assay; format: functional; settings: BT-549, 48 h, values are per cent of control
HCC 2998 = test: Growth inhibition of human HCC2998 cells at 10 uM after 48 hrs by sulforhodamine B assay; format: functional; settings: HCC 2998, 48 h, values are per cent of control
SK-MEL-28 = test: Growth inhibition of human SK-MEL-28 cells at 10 uM after 48 hrs by sulforhodamine B assay; format: functional; settings: SK-MEL-28, 48 h, values are per cent of control
OVCAR-8 = test: Growth inhibition of human OVCAR8 cells at 10 uM after 48 hrs by sulforhodamine B assay; format: functional; settings: OVCAR-8, 48 h, read-out: GI
HOP-92 = test: Growth inhibition of human HOP92 cells at 10 uM after 48 hrs by sulforhodamine B assay; format: functional; settings: HOP-92, 48 h, read-out: GI
786-0 = test: Growth inhibition of human 786-0 cells at 10 uM after 48 hrs by sulforhodamine B assay; format: functional; settings: 786-0, 48 h, values are per cent of control
SK-OV-3 = test: Growth inhibition of human SKOV3 cells at 10 uM after 48 hrs by sulforhodamine B assay; format: functional; settings: SK-OV-3, 48 h, values are per cent of control
NCI-H322M = test: Growth inhibition of human NCI-H322M cells at 10 uM after 48 hrs by sulforhodamine B assay; format: functional; settings: values are per cent of control
HT-29 = test: Growth inhibition of human HT-29 cells at 10 uM after 48 hrs by sulforhodamine B assay; format: functional; settings: HT-29, 48 h, values are per cent of control
EKVX = test: Growth inhibition of human EKVX cells at 10 uM after 48 hrs by sulforhodamine B assay; format: functional; settings: values are per cent of control
MDA-MB-231 = test: Growth inhibition of human MDA-MB-231 cells at 10 uM after 48 hrs by sulforhodamine B assay; format: functional; settings: MDA-MB-231, 48 h, values are per cent of control
A498 = test: Growth inhibition of human A498 cells at 10 uM after 48 hrs by sulforhodamine B assay; format: functional; settings: A498, 48 h, values are per cent of control
OVCAR-5 = test: Growth inhibition of human OVCAR5 cells at 10 uM after 48 hrs by sulforhodamine B assay; format: functional; settings: OVCAR-5, 48 h, values are per cent of control
SNB-75 = test: Growth inhibition of human SNB75 cells at 10 uM after 48 hrs by sulforhodamine B assay; format: functional; settings: SNB-75, 48 h, values are per cent of control
CCRF-CEM = test: Growth inhibition of human CCRF-CEM cells at 10 uM after 48 hrs by sulforhodamine B assay; format: functional; settings: values are per cent of control
MCF7 = test: Growth inhibition of human MCF7 cells at 10 uM after 48 hrs by sulforhodamine B assay; format: functional; settings: MCF7, 48 h, values are per cent of control
MDA-MB-435 = test: Growth inhibition of human MDA-MB-435 cells at 10 uM after 48 hrs by sulforhodamine B assay; format: functional; settings: MDA-MB-435, 48 h, values are per cent of control
PC-3 = test: Growth inhibition of human PC3 cells at 10 uM after 48 hrs by sulforhodamine B assay; format: functional; settings: PC-3, 48 h, values are per cent of control
DU-145 = test: Growth inhibition of human DU145 cells at 10 uM after 48 hrs by sulforhodamine B assay; format: functional; settings: DU-145, 48 h, values are per cent of control
Rattus norvegicus [5] = test: Antiinflammatory activity against carrageenan-induced paw edema in Wister albino rat assessed as inhibition of edema at 50 mg/kg, ip administered 1 hr prior to carrageenan challenge measured after 2 hrs relative to control; format: functional; settings: route intraperitoneal
HOP-62 = test: Growth inhibition of human HOP62 cells at 10 uM after 48 hrs by sulforhodamine B assay; format: functional; settings: HOP-62, 48 h, values are per cent of control
OVCAR-3 = test: Growth inhibition of human OVCAR-3 cells at 10 uM after 48 hrs by sulforhodamine B assay; format: functional; settings: OVCAR-3, 48 h, values are per cent of control
NCI-H23 = test: Growth inhibition of human NCI-H23 cells at 10 uM after 48 hrs by sulforhodamine B assay; format: functional; settings: NCI-H23, 48 h, values are per cent of control
TK-10 = test: Growth inhibition of human TK10 cells at 10 uM after 48 hrs by sulforhodamine B assay; values are per cent of control; settings: TK-10, 48 h
SF-268 = test: Growth inhibition of human SF268 cells at 10 uM after 48 hrs by sulforhodamine B assay; format: functional; settings: SF-268, 48 h, values are per cent of control
MOLT-4 = test: Growth inhibition of human MOLT4 cells at 10 uM after 48 hrs by sulforhodamine B assay; format: functional; settings: MOLT-4, 48 h, values are per cent of control
UACC-62 = test: Growth inhibition of human UACC62 cells at 10 uM after 48 hrs by sulforhodamine B assay; format: functional; settings: UACC-62, 48 h, values are per cent of control

Compound | growth, % of control at 10 µM (UACC-257) | inhibition of growth at 10 µM (RPMI-8226) | growth, % of control at 10 µM (LOX IMVI) | growth, % of control at 10 µM (NCI-H226) | growth, % of control at 10 µM (Malme-3M) | inhibition in vivo at 50 mg/kg (Rattus norvegicus [1]) | activity relative to indomethacin (Rattus norvegicus [2]) | inhibition in vivo at 50 mg/kg (Rattus norvegicus [3]) | growth, % of control at 10 µM (HCT-116) | growth, % of control at 10 µM [4] | inhibition of growth at 10 µM (SK-MEL-2) | growth, % of control at 10 µM (BT-549) | growth, % of control at 10 µM (HCC 2998) | growth, % of control at 10 µM (SK-MEL-28) | inhibition of growth at 10 µM (OVCAR-8) | inhibition of growth at 10 µM (HOP-92) | growth, % of control at 10 µM (786-0) | growth, % of control at 10 µM (SK-OV-3) | growth, % of control at 10 µM (NCI-H322M) | growth, % of control at 10 µM (HT-29) | also measured
[3H]N1C(=O)[C@@]2(c3ccccc31)N(C)C[C@@H](c1ccc(OC)cc1)[C@@]21Cc2ccccc2C1=O | 99.3% | 66.8% | 80.5% | 85.9% | 132% | 20.5% | 45% | 41.2% | 92.6% | 16.8% | 8.7% | 118% | 76.7% | 108% | 55.3% | 62.5% | 102% | 97.3% | 111% | 138% | growth, % of control at 10 µM (EKVX): 92.4%; growth, % of control at 10 µM (MDA-MB-231): 74.4%; growth, % of control at 10 µM (A498): 105%; growth, % of control at 10 µM (OVCAR-5): 106%; growth, % of control at 10 µM (SNB-75): 102%; growth, % of control at 10 µM (CCRF-CEM): 87.3%; growth, % of control at 10 µM (MCF7): 120%; growth, % of control at 10 µM (MDA-MB-435): 124%; growth, % of control at 10 µM (PC-3): 66%; growth, % of control at 10 µM (DU-145): 110%; inhibition in vivo at 50 mg/kg (Rattus norvegicus [5]): 17.5%; growth, % of control at 10 µM (HOP-62): 100%; growth, % of control at 10 µM (OVCAR-3): 98.5%; growth, % of control at 10 µM (NCI-H23): 89.3%; growth, % of control at 10 µM (TK-10): 176%; growth, % of control at 10 µM (SF-268): 113%; growth, % of control at 10 µM (MOLT-4): 79.8%; growth, % of control at 10 µM (UACC-62): 71.8%
[3H]C([3H])([3H])N1C(=O)[C@@]2(c3ccccc31)N(C)C[C@@H](c1ccc(OC)cc1)[C@@]21Cc2ccccc2C1=O | 88.7% | 17.7% | 78.5% | 78.7% | 104% | 3.3% | 8% | 46.9% | 59.8% | -4.27% | -6.92% | 101% | 104% | 101% | 83.8% | 47.1% | 88% | 99.4% | 124% | 66.9% | growth, % of control at 10 µM (EKVX): 67.3%; growth, % of control at 10 µM (MDA-MB-231): 94.3%; growth, % of control at 10 µM (A498): 95.2%; growth, % of control at 10 µM (OVCAR-5): 97.7%; growth, % of control at 10 µM (SNB-75): 79%; growth, % of control at 10 µM (CCRF-CEM): 72.1%; growth, % of control at 10 µM (MCF7): 100%; growth, % of control at 10 µM (MDA-MB-435): 101%; growth, % of control at 10 µM (PC-3): 58.4%; growth, % of control at 10 µM (DU-145): 128%; inhibition in vivo at 50 mg/kg (Rattus norvegicus [5]): 20.2%; growth, % of control at 10 µM (HOP-62): 88.2%; growth, % of control at 10 µM (OVCAR-3): 92.5%; growth, % of control at 10 µM (NCI-H23): 84.5%; growth, % of control at 10 µM (TK-10): 165%; growth, % of control at 10 µM (SF-268): 108%; growth, % of control at 10 µM (MOLT-4): 107%; growth, % of control at 10 µM (UACC-62): 63.1%
